From publication PMC11850406, “Large-scale screening of HIV-1 T-cell epitopes restricted by 12 prevalent HLA-A allotypes in Northeast Asia and universal detection of HIV-1-specific CD8^+ T cells” (Frontiers in Microbiology, 2025)
pIC50: −log10 of the molar value. Like-named read-outs stand apart in the source and are kept apart here. Where no end group is shown, it is not given here.

What was measured:
[1] = target: T1, HLA-A0201 (Homo sapiens, UniProt P04439, D140Y/D185E/D98H/E176V/E277Q/G131W/G231S/I119V/I121R/I166T/I218V/L300P/L318F/N151K/N90K/P208A/P217A/Q86G/Q94H/R138H/R169H/T345S); assay: cell-based; format: binding; settings: for 5-μM inhibition (%) / 15-μM inhibition (%) / inhibition at 5 µM / inhibition at 15 µM: 24 h; for inhibition at 5 µM: read-out: 5-μM inhibition (%); for inhibition at 15 µM: read-out: 15-μM inhibition (%)
T1 construct: expressed in transfected cells; host or cells: HMy2.CIR

[2] = target: HLA-A3303 (Homo sapiens, UniProt P04439, A270S/D185E/E176V/E277Q/E87N/F33T/G231S/H175R/I121M/I218V/I322F/K168Q/L300P/L318F/M331R/P217A/Q86R/Q94H/R138Q/T323A/T345S/T97I/V358M); assay: Peptide competitive binding assay, HMy2.CIR cells expressing A3303; settings: for pIC50: read-out: Affinity; for inhibition at 5 µM: peptide 5 μM vs FITC-labeled reference peptide 300 nM; for inhibition at 5 µM / inhibition at 15 µM: 24 h, 4°C, flow cytometry; for inhibition at 15 µM: peptide 15 μM vs FITC-labeled reference peptide 300 nM
[3] = target: T2, HLA-A1101 (Homo sapiens, UniProt P04439, A114D/D185E/E176A/F33Y/L180Q/S129P/T187R); assay: cell-based; format: binding; settings: for inhibition at 5 µM: read-out: 5-μM inhibition (%); for inhibition at 15 µM: read-out: 15-μM inhibition (%)
T2 construct: expressed in transfected cells; host or cells: HMy2.CIR

[4] = target: HLA-A2402 (Homo sapiens, UniProt P04439, D101N/D140Y/D185E/E176V/E190D/F33S/G103R/G107R/I119L/I121M/I306V/K335N/L105A/L180Q/L300P/N151K/N90K/Q86E/Q94H/R106L/R138H/R89G/T104I/T345S/V100E/W191G/Y123F); assay: cell-based; format: binding; settings: for inhibition at 5 µM / inhibition at 15 µM / 5-μM inhibition (%) / 15-μM inhibition (%): A2402, 24 h, 4°C, flow cytometry; for inhibition at 5 µM / 5-μM inhibition (%): peptide 5 μM vs FITC-labeled reference peptide 300 nM; for inhibition at 15 µM / 15-μM inhibition (%): peptide 15 μM vs FITC-labeled reference peptide 300 nM
[5] = target: T3, HLA-A0203 (Homo sapiens, UniProt P04439, A173T/D140Y/D185E/D98H/E277Q/G131W/G231S/I119V/I121R/I166T/I218V/L180W/L300P/L318F/N151K/N90K/P208A/P217A/Q86G/Q94H/R138H/R169H/T345S); assay: cell-based; format: binding; settings: for 5-μM inhibition (%) / 15-μM inhibition (%) / inhibition at 5 µM / inhibition at 15 µM: 24 h; for inhibition at 5 µM: read-out: 5-μM inhibition (%); for inhibition at 15 µM: read-out: 15-μM inhibition (%)
T3 construct: expressed in transfected cells; host or cells: HMy2.CIR

[6] = A0201, peptide 5 μM vs FITC-labeled reference peptide 300 nM, 4°C, flow cytometry
[7] = A0201, peptide 15 μM vs FITC-labeled reference peptide 300 nM, 4°C, flow cytometry
[8] = A1101, peptide 5 μM vs FITC-labeled reference peptide 300 nM, 24 h, 4°C, flow cytometry
[9] = A1101, peptide 15 μM vs FITC-labeled reference peptide 300 nM, 24 h, 4°C, flow cytometry
[10] = A0203, peptide 5 μM vs FITC-labeled reference peptide 300 nM, 4°C, flow cytometry
[11] = A0203, peptide 15 μM vs FITC-labeled reference peptide 300 nM, 4°C, flow cytometry
[12] = A0203, class from inhibition at 5 and 15 μM of FITC-labeled reference peptide binding, read-out: Affinity

**Q.** How did the “5-μM inhibition (%)” value [1, 6] turn out when KTIIVHLNK [Peptide P19] was run?
**A.** 0.00%

**Q.** What about the “15-μM inhibition (%)” value [1, 7] of the same compound?
**A.** 4.54%

**Q.** MYAPPISGR [Peptide P106] was tested. Which pIC50 ([2]; A3303, class from inhibition at 5 and 15 μM of FITC-labeled reference peptide binding) did it give?
**A.** > 5.30

**Q.** What about the inhibition at 5 µM ([2]; A3303) of the same compound?
**A.** 72.8%

**Q.** And the inhibition at 15 µM ([2]; A3303)?
**A.** 81.5%

**Q.** RTAHTNDVK [Peptide P39] was tested. Which pIC50 ([3]; A1101, class from inhibition at 5 and 15 μM of FITC-labeled reference peptide binding, read-out: Affinity) did it give?
**A.** > 5.30

**Q.** What about the inhibition at 5 µM [3, 8] of the same compound?
**A.** 60.4%

**Q.** And the inhibition at 15 µM [3, 9]?
**A.** 86.2%

**Q.** How did the pIC50 [4] turn out when YWQATWIPEW [Peptide P60] was run?
**A.** > 5.30

**Q.** What about the inhibition at 5 µM [4] of the same compound?
**A.** 97.5%

**Q.** What about the inhibition at 15 µM [4] of the same compound?
**A.** 97.8%

**Q.** With SVPLDESFRK [Peptide P42] as the compound, how does the pIC50 [3] read?
**A.** > 5.30

**Q.** And the inhibition at 5 µM [3, 8]?
**A.** 89.9%

**Q.** What about the inhibition at 15 µM [3, 9] of the same compound?
**A.** 93.8%

**Q.** What does the source list for SVIKQACPK [Peptide P21]?
**A.** pIC50 [3]: 4.82 to 5.30; inhibition at 5 µM [3, 8]: 29.7%; inhibition at 15 µM [3, 9]: 68.9%

**Q.** For ALQTGTEEL [Peptide P8], which “5-μM inhibition (%)” value [1, 6] is on record?
**A.** 0.00%

**Q.** What about the “15-μM inhibition (%)” value [1, 7] of the same compound?
**A.** 14.68%

**Q.** What about the “5-μM inhibition (%)” value [5, 10] of the same compound?
**A.** 0.00%

**Q.** And the “15-μM inhibition (%)” value [5, 11]?
**A.** 5.56%

**Q.** With GTYTPNGTK [Peptide P22] as the compound, how does the pIC50 [3] read?
**A.** 4.82 to 5.30

**Q.** And the inhibition at 5 µM [3, 8]?
**A.** 43.2%

**Q.** And the inhibition at 15 µM [3, 9]?
**A.** 87.4%

**Q.** What does the source list for IWGKTPKFRL [Peptide P62]?
**A.** 5-μM inhibition (%) [4]: 21.17%; 15-μM inhibition (%) [4]: 37.66%

**Q.** Which results are given for WWMEYWQATW [Peptide P57]?
**A.** pIC50 [4]: 4.82 to 5.30; inhibition at 5 µM [4]: 29.2%; inhibition at 15 µM [4]: 70.7%

**Q.** KYRLKHLVW [Peptide P54] was tested. Which pIC50 [4] did it give?
**A.** 4.82 to 5.30

**Q.** What about the inhibition at 5 µM [4] of the same compound?
**A.** 35.8%

**Q.** And the inhibition at 15 µM [4]?
**A.** 79.5%

**Q.** IVIWGKTPK [Peptide P43] was tested. Which pIC50 [3] did it give?
**A.** > 5.30

**Q.** And the inhibition at 5 µM [3, 8]?
**A.** 80.2%

**Q.** And the inhibition at 15 µM [3, 9]?
**A.** 90.1%

**Q.** How did the pIC50 [4] turn out when FYCNTSGLF [Peptide P46] was run?
**A.** > 5.30

**Q.** And the inhibition at 5 µM [4]?
**A.** 95%

**Q.** What about the inhibition at 15 µM [4] of the same compound?
**A.** 99.5%

**Q.** How did the “5-μM inhibition (%)” value [1, 6] turn out when YMLKHLVWA [Peptide P7] was run?
**A.** 8.94%

**Q.** What about the “15-μM inhibition (%)” value [1, 7] of the same compound?
**A.** 16.50%

**Q.** And the “5-μM inhibition (%)” value [5, 10]?
**A.** 3.83%

**Q.** And the “15-μM inhibition (%)” value [5, 11]?
**A.** 19.15%

**Q.** How did the pIC50 ([1]; A0201, class from inhibition at 5 and 15 μM of FITC-labeled reference peptide binding, read-out: Affinity) turn out when SLAEGEIII [Peptide P3] was run?
**A.** 4.82 to 5.30

**Q.** And the inhibition at 5 µM [1, 6]?
**A.** 26.1%

**Q.** And the inhibition at 15 µM [1, 7]?
**A.** 66.2%

**Q.** What about the pIC50 [5, 12] of the same compound?
**A.** 4.82 to 5.30

**Q.** And the inhibition at 5 µM [5, 10]?
**A.** 0.12%

**Q.** And the inhibition at 15 µM [5, 11]?
**A.** 51.1%

**Q.** How did the pIC50 [4] turn out when VQMAVFIHNF [Peptide P64] was run?
**A.** 4.82 to 5.30

**Q.** What about the inhibition at 5 µM [4] of the same compound?
**A.** 31.2%

**Q.** And the inhibition at 15 µM [4]?
**A.** 50.2%

**Q.** Which results are given for TVQPIQLPEK [Peptide P35]?
**A.** pIC50 [3]: > 5.30; inhibition at 5 µM [3, 8]: 88.7%; inhibition at 15 µM [3, 9]: 93.9%

**Q.** Which “5-μM inhibition (%)” value [4] does the source give for WYIKIFIII [Peptide P48] here?
**A.** 1.56%

**Q.** And the “15-μM inhibition (%)” value [4]?
**A.** 6.91%

**Q.** What does the source list for ATESIVIWGK [Peptide P36]?
**A.** pIC50 [3]: > 5.30; inhibition at 5 µM [3, 8]: 88.3%; inhibition at 15 µM [3, 9]: 90.7%

**Q.** What does the source list for SSWSNKSQK [Peptide P24]?
**A.** 5-μM inhibition (%) [3, 8]: 20.55%; 15-μM inhibition (%) [3, 9]: 36.55%

**Q.** Which results are given for `CC[C@H](C)[C@H](NC(=O)[C@H](CO)NC(=O)[C@@H](NC(=O)[C@@H]1CCCN1C(=O)[C@H](CO)NC(=O)[C@H](Cc1ccc(O)cc1)NC(=O)[C@H](CCSC)NC(=O)[C@@H](N)CCCNC(=N)N)C(C)C)C(=O)N[C@@H](CC(C)C)C(=O)O` [Peptide P9]?
**A.** inhibition at 5 µM [1]: 0%; inhibition at 15 µM [1]: 4.54%; pIC50 [5]: 4.82 to 5.30; inhibition at 5 µM [5]: 0%; inhibition at 15 µM [5]: 50.1%

**Q.** Which results are given for GMLMISSAV [Peptide P70]?
**A.** pIC50 [5, 12]: > 5.30; inhibition at 5 µM [5, 10]: 71.4%; inhibition at 15 µM [5, 11]: 85.5%

**Q.** Which results are given for ELYPLTSLK [Peptide P29]?
**A.** pIC50 [3]: > 5.30; inhibition at 5 µM [3, 8]: 51.1%; inhibition at 15 µM [3, 9]: 79.9%

**Q.** QMQEDVISL [Peptide P4] was tested. Which “5-μM inhibition (%)” value [1, 6] did it give?
**A.** 10.81%

**Q.** And the “15-μM inhibition (%)” value [1, 7]?
**A.** 44.70%

**Q.** What about the “5-μM inhibition (%)” value [5, 10] of the same compound?
**A.** 0.00%

**Q.** And the “15-μM inhibition (%)” value [5, 11]?
**A.** 0.00%

**Q.** With ALQDSGSEV [Peptide P18] as the compound, how does the “5-μM inhibition (%)” value [1, 6] read?
**A.** 15.88%

**Q.** What about the “15-μM inhibition (%)” value [1, 7] of the same compound?
**A.** 41.90%

**Q.** How did the pIC50 [4] turn out when NYTNQIYEI [Peptide P47] was run?
**A.** > 5.30

**Q.** What about the inhibition at 5 µM [4] of the same compound?
**A.** 87.5%

**Q.** And the inhibition at 15 µM [4]?
**A.** 94.5%

**Q.** With TFYVDGAASR [Peptide P110] as the compound, how does the inhibition at 5 µM ([2]; A3303) read?
**A.** 78.2%

**Q.** What about the inhibition at 15 µM ([2]; A3303) of the same compound?
**A.** 90.1%

**Q.** And the pIC50 [2]?
**A.** > 5.30
